# Source: patent US6730666B1, “Pharmaceutical compositions comprising porphyrins and some novel porphyrin derivatives” (Yeda Research and Development Co. Ltd., priority 1998, dated 2004)
# Where two headings read alike, the source gives them in different places.
# Columns and labels:
# [1] = biological target: T1, FGFR-1 alkaline phosphatase fusion protein (FRAP) (Mus musculus, UniProt P16092); assay: Binding of soluble FGFR-1 alkaline phosphatase fusion protein (FRAP) to bFGF immobilized on heparin (Screen AP assay)
# T1 construct: soluble FGFR-1 ectodomain alkaline phosphatase fusion protein (FRAP); made in house; host or cells: NIH 3T3 cells (conditioned medium)
# T1 sequence (P16092 22-376 limits assumed): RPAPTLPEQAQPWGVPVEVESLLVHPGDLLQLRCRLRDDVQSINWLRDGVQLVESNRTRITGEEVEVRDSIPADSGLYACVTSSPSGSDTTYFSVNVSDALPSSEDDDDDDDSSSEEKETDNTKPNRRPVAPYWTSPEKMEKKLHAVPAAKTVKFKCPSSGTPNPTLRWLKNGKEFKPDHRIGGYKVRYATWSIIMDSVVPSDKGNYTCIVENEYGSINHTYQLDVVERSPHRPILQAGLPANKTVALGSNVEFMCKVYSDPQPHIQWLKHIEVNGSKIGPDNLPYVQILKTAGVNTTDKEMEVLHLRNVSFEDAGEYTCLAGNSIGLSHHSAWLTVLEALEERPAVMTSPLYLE
# Procedure: (ii) Binding of soluble FGFR-1 alkaline phosphatase fusion protein (FRAP) to immobilized bFGF. […] The end-point of the assay measured enzymatically the formation of FGF-receptor complexes quantitated by the specifically associated alkaline phosphatase (AP) catalyzed chromogenic product.
# Subsequently, 200 μl of FRAP condition medium and porphyrin/corrole compound were added and incubated together for 2 h.
# In order to identify inhibitors of FGF-FGFR interactions, an assay for testing FGFR-ligand binding was developed. The system is composed of bFGF bound to a heparin matrix to which soluble FGFR-1 ectodomain alkaline phosphatase fusion protein (FRAP) and the screened compounds are added (see Methods, section (ii)).
# [2] = system: microvascular tubules sprouting from rat aorta sections; assay: Rat aorta in vitro angiogenesis assay (collagen gel, bFGF-induced); assay type: cell-based
# Procedure: (vi) Rat aorta in vitro angiogenesis assay. Rings of rat aorta sections were immobilized in a three-dimensional collagen gel, in the presence of serum free growth medium (D/MEM) (Nicosia & Ottinetti, 1990). Porphyrin or corrole compound and bFGF (2 ng/ml) were added to the growth medium twice a week when indicated. After 14 days the cultures were fixed, and the extent of microvascular endothelial tube outgrowth was measured under a light microscope (Miao et al., 1997).
# The effect of P1 was further examined in a biological assay for angiogenesis in vitro. Angiogenic vascularization is a process in which bFGF is known to play a pivotal role (Folkman, 1989). To examine the inhibitory effects of the porphyrin on bFGF-promoted angiogenesis, we employed an in vitro angiogenic assay using rat aorta sections embedded in a collagen gel (Methods, section (vi)). The assay measures the extent of endothelial cell growth and microvascular tubules sprouting from the vessel tissue embedded in the gel. Basal tubule formation can be detected even when no additional factors are added.
# [3] = biological target: T2, flt-1 VEGF receptor AP fusion protein (Homo sapiens, UniProt P17948); assay: Binding of soluble VEGF receptor flt-1-AP fusion protein to immobilized VEGF; details: FIG. 10B; read-out: IC50, inhibition of flt-1-AP binding to immobilized VEGF
# T2 construct: soluble VEGF receptor flt-1-AP fusion protein; made in house
# Description: ix) Binding of soluble VEGF receptor alkaline phosphatase fusion protein to immobilized VEGF. The flt-1 VEGF receptor was expressed as a fusion protein with AP as previously described (Roeckl et al, 1998) and tested for its binding capacity to immobilized VEGF as described in method (ii) above for the FGF receptor.
# [4] = biological target: EGF tyrosine kinase receptor (Homo sapiens, UniProt P00533); assay: Binding of EGF to its high affinity tyrosine kinase receptor
# [5] = biological target: T3, FGFR-3 (Homo sapiens, UniProt P22607); assay: Binding of 125I-FGF9 to CHO cells transfected with FGFR-3; details: FIG. 12
# T3 construct: expressed in transfected cells; host or cells: CHO cells (mutant 745)
# Procedure: CHO mutant cells-745 expressing FGFR-3 were incubated for 90 min at 4° C. in the presence of increasing concentrations of the porphyrins, with 1 μg/ml of heparin and ^125I-FGF9 (2 ng/ml). The binding medium was discarded and the cells were washed with ice cold DMEM/BSA. To determine receptor binding of ^125I-FGF9, the cells were incubated in cold PBS (pH 4) containing 1.6M NaCl and 25 mM HEPES, and the cell extract was counted in a γ-counter.
# (iv) Binding of ^125I-bFGF and ^125I-FGF9 to cells. Confluent cultures of CHO cells expressing FGFR-1(Yayon et al, 1991) or FGFR-3 (Hecht et al, 1995) in 24-well plates (Falcon) were precooled and washed twice with cold DMEM supplemented with 20 mM Hepes (pH 7.5) and 0.1% bovine serum albumin (DMEM/BSA). They were then incubated for 1.5 h at 4° C. with ^125I-bFGF (2 ng/ml) and increasing concentrations of porphyrin/corrole compound. The binding medium was discarded and the cells were washed once with ice-cold DMEM/BSA and twice with cold PBS (pH 7.5) containing 1.6M NaCl. […] Non-specific binding was determined in the presence of a 100-fold excess of unlabeled bFGF.
# [6] = biological target: T3, FGFR-3; assay: FGFR-3 tyrosine phosphorylation immunoblot (FGF-9 induced); assay type: cell-based; details: FIG. 14
# Procedure: (viii) Immunoblots. To the overnight serum-starved cells (2 plates for each treatment), 500 μl of F12^++ medium were added which either contained or not the respective porphyrin or corrole compound in a final concentration of […] for 40 min at 37° C. One of the two plates of each treatment was then stimulated with FGF9 (+) (75 ng/ml) and to the second plate only medium (−) was added for 10 min at 37° C. The cells were washed twice with PBS. 600 μl of SBN lysis buffer containing 1% NP-40 and 1 mM vanadate were added and left on ice for 10 min. The plates were then scraped and left on ice for additional 10 min. The lysate was span down in Eppendorf centrifuge for 15 min, 15000 rpm at 4° C. The supernatants were kept and Bradford protein determinant on assay was performed in the samples. 500 μg protein from each sample were taken for immunoprecipitation with 7.5 μl antibody against FGFR-3, 4 hr at 4° C.
# In order to measure the ability of the porphyrins to inhibit the receptor activation on an enzymatic level as well, FGFR-3 tyrosine phosphorylation was measured in the presence of P16, as described in Methods, section (viii).
# T3 sequence (P22607 23-806, species assumed): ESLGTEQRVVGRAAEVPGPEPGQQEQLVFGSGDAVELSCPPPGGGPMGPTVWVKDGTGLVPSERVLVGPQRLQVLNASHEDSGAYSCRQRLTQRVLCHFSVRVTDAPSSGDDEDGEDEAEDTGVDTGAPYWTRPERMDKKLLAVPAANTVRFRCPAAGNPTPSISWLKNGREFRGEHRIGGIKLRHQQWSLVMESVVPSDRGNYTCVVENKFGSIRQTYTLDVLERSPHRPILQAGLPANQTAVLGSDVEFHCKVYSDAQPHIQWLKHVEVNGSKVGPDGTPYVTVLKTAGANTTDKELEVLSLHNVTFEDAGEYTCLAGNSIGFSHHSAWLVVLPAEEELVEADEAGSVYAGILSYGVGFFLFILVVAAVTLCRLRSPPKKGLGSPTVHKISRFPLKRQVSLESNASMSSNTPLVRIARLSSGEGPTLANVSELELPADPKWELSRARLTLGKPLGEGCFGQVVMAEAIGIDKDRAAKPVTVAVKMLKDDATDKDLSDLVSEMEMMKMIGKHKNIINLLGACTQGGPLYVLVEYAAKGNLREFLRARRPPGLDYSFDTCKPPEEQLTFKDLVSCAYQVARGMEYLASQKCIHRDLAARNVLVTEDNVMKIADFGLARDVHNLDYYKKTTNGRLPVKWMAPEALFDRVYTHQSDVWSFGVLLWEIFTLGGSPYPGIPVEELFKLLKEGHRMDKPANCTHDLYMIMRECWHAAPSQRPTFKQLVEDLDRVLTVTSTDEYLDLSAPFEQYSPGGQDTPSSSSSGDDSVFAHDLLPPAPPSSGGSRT
# EGF tyrosine kinase receptor, sequence (P00533 25-1210): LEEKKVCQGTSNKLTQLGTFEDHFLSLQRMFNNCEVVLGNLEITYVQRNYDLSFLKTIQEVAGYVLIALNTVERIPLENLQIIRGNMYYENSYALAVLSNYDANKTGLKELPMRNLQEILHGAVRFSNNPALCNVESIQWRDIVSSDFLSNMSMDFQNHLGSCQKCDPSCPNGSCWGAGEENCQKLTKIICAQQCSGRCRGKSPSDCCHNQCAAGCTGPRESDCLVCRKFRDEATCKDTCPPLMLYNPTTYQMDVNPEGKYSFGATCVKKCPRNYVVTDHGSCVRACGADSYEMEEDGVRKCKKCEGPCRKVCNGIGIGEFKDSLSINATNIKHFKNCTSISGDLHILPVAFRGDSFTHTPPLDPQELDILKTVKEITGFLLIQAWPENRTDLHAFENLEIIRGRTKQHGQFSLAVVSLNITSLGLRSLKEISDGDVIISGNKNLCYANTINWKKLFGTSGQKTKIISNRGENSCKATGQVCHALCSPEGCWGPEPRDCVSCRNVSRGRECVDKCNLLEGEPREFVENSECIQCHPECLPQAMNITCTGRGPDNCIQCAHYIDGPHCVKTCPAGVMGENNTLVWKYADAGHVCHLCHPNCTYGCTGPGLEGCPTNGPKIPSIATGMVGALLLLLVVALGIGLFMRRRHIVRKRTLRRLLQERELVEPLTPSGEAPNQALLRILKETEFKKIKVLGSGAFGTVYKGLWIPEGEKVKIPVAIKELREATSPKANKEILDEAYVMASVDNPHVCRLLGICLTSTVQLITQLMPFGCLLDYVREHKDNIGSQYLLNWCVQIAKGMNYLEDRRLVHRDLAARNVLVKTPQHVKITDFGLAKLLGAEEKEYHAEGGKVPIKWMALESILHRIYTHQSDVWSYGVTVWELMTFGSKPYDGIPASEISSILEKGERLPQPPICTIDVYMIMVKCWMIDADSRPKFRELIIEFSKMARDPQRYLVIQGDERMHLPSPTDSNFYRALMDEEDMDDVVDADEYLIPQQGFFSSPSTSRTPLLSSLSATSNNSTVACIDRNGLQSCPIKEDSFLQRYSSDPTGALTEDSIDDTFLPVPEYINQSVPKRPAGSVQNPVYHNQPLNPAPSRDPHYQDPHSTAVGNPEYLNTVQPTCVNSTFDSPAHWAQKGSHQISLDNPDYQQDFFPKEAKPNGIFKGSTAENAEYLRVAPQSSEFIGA
# T2 sequence (P17948 27-758 limits assumed): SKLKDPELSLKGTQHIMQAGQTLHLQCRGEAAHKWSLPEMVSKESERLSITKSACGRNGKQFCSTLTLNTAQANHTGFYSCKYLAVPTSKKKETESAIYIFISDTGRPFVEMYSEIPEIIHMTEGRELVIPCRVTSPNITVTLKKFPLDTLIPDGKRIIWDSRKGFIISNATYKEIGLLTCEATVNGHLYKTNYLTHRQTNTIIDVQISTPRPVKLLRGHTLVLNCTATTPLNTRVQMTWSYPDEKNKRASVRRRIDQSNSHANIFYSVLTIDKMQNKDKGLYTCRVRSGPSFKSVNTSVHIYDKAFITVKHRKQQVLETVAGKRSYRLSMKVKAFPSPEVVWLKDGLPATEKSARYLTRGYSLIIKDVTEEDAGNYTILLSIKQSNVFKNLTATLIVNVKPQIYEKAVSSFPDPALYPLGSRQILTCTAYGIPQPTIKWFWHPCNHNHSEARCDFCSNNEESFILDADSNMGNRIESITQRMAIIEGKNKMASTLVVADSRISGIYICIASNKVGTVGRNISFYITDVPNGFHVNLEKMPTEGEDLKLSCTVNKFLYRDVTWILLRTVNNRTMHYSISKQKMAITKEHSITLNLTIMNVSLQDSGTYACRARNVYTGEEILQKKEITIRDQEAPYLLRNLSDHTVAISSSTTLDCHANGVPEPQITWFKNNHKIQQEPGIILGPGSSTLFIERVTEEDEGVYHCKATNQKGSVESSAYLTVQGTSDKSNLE
SMILES,"IC50 ([1]; FIG. 1A, read-out: IC50, inhibition of FRAP binding to bFGF immobilized on heparin matrix (converted)) [nM]","IC50 ([1]; IC50, inhibition of binding of soluble FGFR-1 to bFGF immobilized on heparin, text of detailed description) [nM]","IC50 ([1]; binding of FGF to FGFR, Methods section (ii), read-out: Screen AP assay (IC50)) [nM]","Effect on bFGF-induced endothelial cell growth ([2]; 10 μM, with 2 ng/ml bFGF)","Effect on microvascular tubules ([2]; 100 μl P1, with 2 ng/ml bFGF)",IC50 [3] [nM],Inhibition of EGF binding to its receptor [4],"IC50, FGF-9 binding in the cellular receptor system [5] [µg/mL]",Effect on FGFR-3 tyrosine phosphorylation [6]
"C[n+]1ccc(-c2c3nc(c(-c4cc[n+](C)cc4)c4ccc([nH]4)c(-c4cc[n+](C)cc4)c4nc(c(-c5cc[n+](C)cc5)c5ccc2[nH]5)C=C4)C=C3)cc1 [Compound P1, 5,10,15,20-Tetrakis(N-methyl-4-pyridylium)-21H,23H-porphine tetra-p-tosylate]",133,90000,75,dramatically reduced the extent of endothelial cell growth,complete inhibition of microvascular tubules,~40,does not inhibit,,
"C[n+]1ccc(-c2c3nc(c(-c4cc[n+](C)cc4)c4ccc([nH]4)c(-c4c(F)c(F)c(F)c(F)c4F)c4nc(c(-c5cc[n+](C)cc5)c5ccc2[nH]5)C=C4)C=C3)cc1.[I-].[I-].[I-] [Compound P16, 5-Pentafluorophenyl-10,15,20-tris(N-methyl-4-pyridylium)-21H,23H-porphine triiodide]",,,,,,,,0.1,"reduced both the basal and, to a much greater extent, the FGF-9 induced phosphorylation of FGFR-3"
